Experimental data from PubChem BioAssay (NCI).
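Results reflect a 48-hour exposure of cells in 96-well plates to compound at five concentrations. GI50 marks 50% less growth. TGI marks complete inhibition of growth.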

How the values were obtained:
Experiment in all cases: growth of human tumour cells (NCI), 48 h; in the data active = GI50 below about 0.43 µM; inactive = the rest
[1] = test system: ACHN renal
[2] = test system: SK-MEL-5 melanoma
[3] = test system: SF-268 CNS
[4] = test system: MALME-3M melanoma
[5] = test system: HCT-15 colon
[6] = test system: SF-539 CNS
[7] = test system: HOP-92 NSCLC
[8] = test system: OVCAR-4 ovarian
[9] = test system: SNB-19 CNS
[10] = test system: NCI-H23 lung
[11] = test system: CCRF-CEM leukemia
[12] = test system: HS 578T breast
[13] = test system: SNB-75 CNS
[14] = test system: RXF 393 renal
[15] = test system: NCI-H460 lung
[16] = test system: LOX IMVI melanoma
[17] = test system: MDA-MB-435
[18] = test system: IGROV1 ovarian
[19] = test system: OVCAR-8 ovarian
[20] = test system: NCI/ADR-RES ovarian
[21] = test system: UACC-62 melanoma
[22] = test system: HCC-2998 colon
[23] = test system: DU-145 prostate
[24] = test system: HL-60(TB) leukemia
[25] = test system: NCI-H522 lung
[26] = test system: HCT-116 colon
[27] = test system: KM12 colon
[28] = test system: HT29 colon
[29] = test system: UACC-257 melanoma
[30] = test system: BT-549 breast
[31] = test system: COLO 205 colon
[32] = test system: SR leukemia
[33] = test system: CAKI-1 renal
[34] = test system: K-562 leukemia
[35] = test system: SW-620 colon
[36] = test system: PC-3 prostate
[37] = test system: MCF7 breast
[38] = test system: SN12C renal
[39] = test system: TK-10 renal
[40] = test system: MOLT-4 leukemia
[41] = test system: MDA-MB-231 breast
[42] = test system: U251 CNS
[43] = test system: NCI-H226 lung
[44] = test system: SF-295 CNS
[45] = test system: HOP-62 NSCLC
[46] = test system: RPMI-8226 leukemia
[47] = test system: OVCAR-3 ovarian
[48] = test system: OVCAR-5 ovarian
[49] = test system: 786-0 renal
[50] = test system: T-47D breast
[51] = test system: SK-MEL-2 melanoma
[52] = test system: A549 NSCLC
[53] = test system: SK-MEL-28 melanoma
[54] = test system: M14 melanoma
[55] = test system: MDA-N
[56] = test system: A498 renal
[57] = test system: SK-OV-3 ovarian
[58] = test system: UO-31 renal

COc1ccc(C2=C(c3ccc(OC)c(OC)c3)C(=O)N3CCCC3C2)cc1 (stereo unspecified)
inactive: GI50 [1] 34 µM | GI50 [2] 9.03 µM | GI50 [3] 9.44 µM | GI50 [4] > 71.4 µM | GI50 [5] 5.18 µM | GI50 [6] 12 µM | GI50 [7] 41.3 µM | GI50 [8] 20.6 µM | GI50 [9] 63.8 µM | GI50 [10] > 90.4 µM | GI50 [11] 8.03 µM | GI50 [12] 6.71 µM | GI50 [13] 16.6 µM | GI50 [14] 11.5 µM | GI50 [15] 4.46 µM | GI50 [16] 10.4 µM | GI50 [17] 25.7 µM | GI50 [18] 13.3 µM | GI50 [19] 21.7 µM | GI50 [20] 39.6 µM | GI50 [21] 13.2 µM | GI50 [22] 53.6 µM | GI50 [23] 30.8 µM | GI50 [24] 4.26 µM | GI50 [25] 15.7 µM | GI50 [26] 9.64 µM | GI50 [27] 15.7 µM | GI50 [28] 13.6 µM | GI50 [29] 62.3 µM | GI50 [30] > 71.2 µM | GI50 [31] 8.41 µM | GI50 [32] 3.02 µM | GI50 [33] 39.4 µM | GI50 [34] 7.32 µM | GI50 [35] 32.5 µM | GI50 [36] 9.73 µM | GI50 [37] 31.8 µM | GI50 [38] 45.7 µM | GI50 [39] 76.2 µM | GI50 [40] 2.72 µM | GI50 [41] 22 µM | GI50 [42] 7.47 µM | GI50 [43] 43.9 µM | GI50 [44] 29.2 µM | GI50 [45] 14.7 µM | GI50 [46] 8.47 µM | GI50 [47] 23.9 µM | GI50 [48] > 100 µM | GI50 [49] 27.6 µM | GI50 [50] 42.3 µM | GI50 [51] > 71.1 µM | GI50 [52] 15.1 µM | GI50 [53] 73.3 µM | GI50 [54] 35.9 µM | GI50 [55] 44.6 µM | GI50 [56] 34.1 µM | GI50 [57] 30.5 µM | GI50 [58] 22.8 µM
> 86.8 µM: TGI [23]
> 72.9 µM: TGI [13]
19.6 µM: TGI [40]
> 78 µM: TGI [12]
22.7 µM: TGI [24]
62.6 µM: TGI [46]
> 72.6 µM: TGI [2]
> 52.7 µM: TGI [16]
23.3 µM: TGI [15]
> 100 µM: TGI [1] | TGI [3] | TGI [4] | TGI [5] | TGI [6] | TGI [7] | TGI [8] | TGI [9] | TGI [10] | TGI [11] | TGI [17] | TGI [18] | TGI [19] | TGI [20] | TGI [21] | TGI [22] | TGI [25] | TGI [26] | TGI [27] | TGI [28] | TGI [29] | TGI [30] | TGI [31] | TGI [33] | TGI [34] | TGI [35] | TGI [36] | TGI [37] | TGI [38] | TGI [39] | TGI [41] | TGI [42] | TGI [43] | TGI [44] | TGI [45] | TGI [48] | TGI [49] | TGI [50] | TGI [51] | TGI [52] | TGI [53] | TGI [54] | TGI [55] | TGI [56] | TGI [57] | TGI [58]
> 93.8 µM: TGI [47]
> 38.2 µM: TGI [14]
12.8 µM: TGI [32]
